The source made the active and inactive calls.
Legend:
[1] = A Cell Based Secondary Assay To Explore Cytotoxicity of Compounds that Sensitize Mycobacterium Tuberculosis to Beta-Lactam Antibiotics.; type: functional
[2] = target: Peroxisome proliferator-activated receptor gamma/Nuclear receptor coactivator 3 (Homo sapiens, UniProt P37231); type: functional;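 note: agonist potency for raising coactivator recruitment to the receptor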
[3] = target: Peroxisome proliferator-activated receptor gamma/Nuclear receptor coactivator 1 (Homo sapiens, UniProt P37231); type: functional;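 note: agonist potency as compounds enhance coactivator SRC-1 recruitment to PPARgamma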
[4] = target: Peroxisome proliferator-activated receptor gamma/Nuclear receptor coactivator 2 (Homo sapiens, UniProt P37231); type: functional;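 note: agonist potency for raising coactivator recruitment to the receptor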
[5] = target: T1, Polyadenylate-binding protein 1 (Homo sapiens, UniProt P11940); test: PABP1 MLLE–PAM2 interaction inhibitors, dose response, miRNA deadenylation inhibitor project, biochemical, fluorescence polarization, Cy5-PAM2 peptide, secondary (AID 602260); type: functional; conditions: read-out: IC50_Mean
[6] = target: T1, Polyadenylate-binding protein 1; test: PABP1 MLLE–PAM2 binding inhibitor potency, dose response, biochemical, fluorescence polarization, FITC-PAM2 peptide (AID 602259); type: functional; conditions: read-out: IC50_Mean
Protein RecA = target: T2, Protein RecA (Mycobacterium tuberculosis, UniProt P9WHJ3); test: Fluorescence Cell-Free Homogeneous Dose Retest to Identify Inhibitors of RecA-Intein Splicing Activity. [Related pubchem assays (depositor defined):AID2097, AID2223, AID489010, AID492950]; type: functional
T2 sequence (P9WHJ3 whole entry): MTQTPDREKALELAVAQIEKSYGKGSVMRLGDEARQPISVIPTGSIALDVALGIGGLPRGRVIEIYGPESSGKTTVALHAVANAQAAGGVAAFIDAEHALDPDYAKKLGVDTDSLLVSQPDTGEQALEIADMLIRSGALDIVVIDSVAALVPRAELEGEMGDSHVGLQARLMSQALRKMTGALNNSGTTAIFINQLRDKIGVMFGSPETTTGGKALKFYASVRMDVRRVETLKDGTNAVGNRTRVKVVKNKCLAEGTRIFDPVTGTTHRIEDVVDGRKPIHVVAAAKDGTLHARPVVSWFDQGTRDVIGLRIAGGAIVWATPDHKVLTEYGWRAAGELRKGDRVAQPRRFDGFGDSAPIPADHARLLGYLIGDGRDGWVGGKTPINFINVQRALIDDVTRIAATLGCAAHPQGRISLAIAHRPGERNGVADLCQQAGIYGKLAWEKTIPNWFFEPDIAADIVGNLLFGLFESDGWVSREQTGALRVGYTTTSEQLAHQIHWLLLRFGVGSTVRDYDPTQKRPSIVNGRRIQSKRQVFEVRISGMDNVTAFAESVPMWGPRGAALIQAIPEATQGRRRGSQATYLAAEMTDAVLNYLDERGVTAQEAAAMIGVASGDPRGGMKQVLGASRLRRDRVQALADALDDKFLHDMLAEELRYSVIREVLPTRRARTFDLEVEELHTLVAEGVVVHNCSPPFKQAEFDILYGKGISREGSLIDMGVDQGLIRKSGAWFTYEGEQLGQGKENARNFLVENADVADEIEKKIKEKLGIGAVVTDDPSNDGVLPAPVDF

Genome polyprotein = Genome polyprotein (dengue virus type 2, UniProt P29990); test: Dengue-2 NS5 methyltransferase inhibitors, primary screen, biochemical, confirmation dose response (AID 588689); type: functional
[7] = target: T3, Mannose-6-phosphate isomerase (Homo sapiens, UniProt P34949); test: inhibitors of human PMI, primary screen, biochemical, fluorescence intensity, coupled assay (AID 1209)
T3 sequence (P34949 whole entry): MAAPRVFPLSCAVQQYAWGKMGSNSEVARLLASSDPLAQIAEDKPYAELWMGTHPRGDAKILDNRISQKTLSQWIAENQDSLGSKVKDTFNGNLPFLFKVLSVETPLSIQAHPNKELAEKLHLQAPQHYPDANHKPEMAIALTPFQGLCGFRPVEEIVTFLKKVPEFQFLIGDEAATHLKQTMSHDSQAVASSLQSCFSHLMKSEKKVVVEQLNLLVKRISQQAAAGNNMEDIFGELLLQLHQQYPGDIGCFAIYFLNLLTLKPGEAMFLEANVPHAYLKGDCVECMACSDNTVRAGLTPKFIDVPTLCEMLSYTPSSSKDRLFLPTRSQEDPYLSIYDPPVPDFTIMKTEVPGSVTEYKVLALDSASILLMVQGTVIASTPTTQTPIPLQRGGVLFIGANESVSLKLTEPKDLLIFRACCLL

[8] = target: T4, Replicative DNA helicase DnaB (Mycobacterium tuberculosis, UniProt P9WMR3); test: DnaB intein splicing inhibitors, dose response, biochemical, cell-free fluorescence (AID 449749); type: functional
T4 sequence (P9WMR3 whole entry): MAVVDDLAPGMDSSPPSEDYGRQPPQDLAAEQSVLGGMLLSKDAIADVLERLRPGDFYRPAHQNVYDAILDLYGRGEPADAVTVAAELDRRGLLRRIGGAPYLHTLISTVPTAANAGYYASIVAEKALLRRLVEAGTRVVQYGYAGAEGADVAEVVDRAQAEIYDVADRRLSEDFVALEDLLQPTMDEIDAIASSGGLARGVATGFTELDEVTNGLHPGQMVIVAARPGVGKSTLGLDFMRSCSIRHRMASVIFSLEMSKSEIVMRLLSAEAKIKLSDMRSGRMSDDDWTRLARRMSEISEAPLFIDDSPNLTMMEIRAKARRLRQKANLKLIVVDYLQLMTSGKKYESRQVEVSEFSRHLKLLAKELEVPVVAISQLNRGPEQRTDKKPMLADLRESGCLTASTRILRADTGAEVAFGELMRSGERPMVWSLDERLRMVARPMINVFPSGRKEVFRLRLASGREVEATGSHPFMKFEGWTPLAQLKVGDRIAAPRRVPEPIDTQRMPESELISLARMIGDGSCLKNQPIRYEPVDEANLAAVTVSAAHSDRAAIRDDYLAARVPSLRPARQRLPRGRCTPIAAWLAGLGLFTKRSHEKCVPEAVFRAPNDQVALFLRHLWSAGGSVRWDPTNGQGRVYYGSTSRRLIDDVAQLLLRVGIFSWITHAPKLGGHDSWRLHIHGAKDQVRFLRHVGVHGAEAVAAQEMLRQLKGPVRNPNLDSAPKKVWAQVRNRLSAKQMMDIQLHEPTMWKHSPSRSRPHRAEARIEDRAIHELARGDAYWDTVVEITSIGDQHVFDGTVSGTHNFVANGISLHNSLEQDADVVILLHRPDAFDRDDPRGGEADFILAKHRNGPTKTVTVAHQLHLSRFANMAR

[9] = target: T5, Sentrin-specific protease 6 (Homo sapiens, UniProt Q9GZR1); test: SAR Analysis of small molecule inhibitors of Sentrin-specific protease 6 (SENP6) using a Luminescent assay. [Related pubchem assays (depositor defined):AID2582, AID2599]; type: functional
T5 sequence (Q9GZR1 whole entry): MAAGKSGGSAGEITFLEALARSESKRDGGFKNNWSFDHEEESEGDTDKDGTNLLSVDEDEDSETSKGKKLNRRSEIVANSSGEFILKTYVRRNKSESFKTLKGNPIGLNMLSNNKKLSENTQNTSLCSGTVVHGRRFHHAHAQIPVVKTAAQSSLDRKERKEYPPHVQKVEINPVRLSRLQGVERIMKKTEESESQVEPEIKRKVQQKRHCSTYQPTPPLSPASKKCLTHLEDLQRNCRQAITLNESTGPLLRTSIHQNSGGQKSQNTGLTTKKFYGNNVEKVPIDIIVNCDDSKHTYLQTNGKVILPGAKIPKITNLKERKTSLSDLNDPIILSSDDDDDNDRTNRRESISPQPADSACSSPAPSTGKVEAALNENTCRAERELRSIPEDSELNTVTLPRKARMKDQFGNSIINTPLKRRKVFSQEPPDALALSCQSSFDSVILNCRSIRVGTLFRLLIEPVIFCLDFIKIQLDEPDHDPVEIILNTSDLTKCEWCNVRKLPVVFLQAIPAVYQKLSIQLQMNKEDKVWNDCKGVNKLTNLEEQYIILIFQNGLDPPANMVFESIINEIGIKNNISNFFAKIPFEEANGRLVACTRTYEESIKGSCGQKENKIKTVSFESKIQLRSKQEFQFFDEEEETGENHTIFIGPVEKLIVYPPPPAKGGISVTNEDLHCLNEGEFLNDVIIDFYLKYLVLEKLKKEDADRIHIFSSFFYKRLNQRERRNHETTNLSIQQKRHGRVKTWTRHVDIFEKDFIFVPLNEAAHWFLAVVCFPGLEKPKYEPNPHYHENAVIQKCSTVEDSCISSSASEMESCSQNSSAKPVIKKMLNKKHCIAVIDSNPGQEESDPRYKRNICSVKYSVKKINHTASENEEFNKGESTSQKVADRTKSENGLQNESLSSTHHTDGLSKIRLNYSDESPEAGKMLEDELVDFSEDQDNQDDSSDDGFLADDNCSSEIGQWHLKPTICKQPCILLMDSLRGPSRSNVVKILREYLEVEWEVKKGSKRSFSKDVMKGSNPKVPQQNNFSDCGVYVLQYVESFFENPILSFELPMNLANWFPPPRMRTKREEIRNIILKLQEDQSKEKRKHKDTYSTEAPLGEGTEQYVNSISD

[10] = target: T6, Sentrin-specific protease 8 (Homo sapiens, UniProt Q96LD8); test: SENP8 protease inhibitors, SAR follow-up, biochemical, luminescence (AID 504501); type: functional
T6 sequence (Q96LD8 whole entry): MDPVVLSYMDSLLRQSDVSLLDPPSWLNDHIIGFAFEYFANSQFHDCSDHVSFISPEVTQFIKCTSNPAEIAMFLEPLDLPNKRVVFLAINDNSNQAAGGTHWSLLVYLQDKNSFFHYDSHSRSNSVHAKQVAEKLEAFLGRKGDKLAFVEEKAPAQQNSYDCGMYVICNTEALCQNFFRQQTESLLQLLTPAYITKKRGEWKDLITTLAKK

Caspase-3 = target: T7, Caspase-3 (Homo sapiens, UniProt P42574); test: SAR Analysis of small molecule inhibitors of Sentrin-specific proteases (SENPs) using a Caspase-3 Selectivity assay. [Related pubchem assays (depositor defined):AID2540, AID2599, AID434973, AID489001]; type: functional
T7 sequence (P42574 whole entry): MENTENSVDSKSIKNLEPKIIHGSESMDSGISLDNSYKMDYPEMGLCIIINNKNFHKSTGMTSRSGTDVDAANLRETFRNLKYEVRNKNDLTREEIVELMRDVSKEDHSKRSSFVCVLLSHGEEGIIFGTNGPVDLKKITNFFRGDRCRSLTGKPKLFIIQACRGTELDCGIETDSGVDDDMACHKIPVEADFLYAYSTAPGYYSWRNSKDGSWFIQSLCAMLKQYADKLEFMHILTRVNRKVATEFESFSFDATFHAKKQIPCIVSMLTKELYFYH

Estrogen receptor beta [11] = target: T8, Estrogen receptor beta (Homo sapiens, UniProt Q92731); test: ERβ–SRC-3 coactivator interaction inhibitors, confirmation, orthogonal assay, biochemical, ELISA, streptavidin-HRP readout (AID 1060)
[12] = target: T9, Sentrin-specific protease 7 (Homo sapiens, UniProt Q9BQF6); test: SENP7 protease inhibitors, SAR follow-up, biochemical, luminescence (AID 504497); type: functional
T9 sequence (Q9BQF6 whole entry): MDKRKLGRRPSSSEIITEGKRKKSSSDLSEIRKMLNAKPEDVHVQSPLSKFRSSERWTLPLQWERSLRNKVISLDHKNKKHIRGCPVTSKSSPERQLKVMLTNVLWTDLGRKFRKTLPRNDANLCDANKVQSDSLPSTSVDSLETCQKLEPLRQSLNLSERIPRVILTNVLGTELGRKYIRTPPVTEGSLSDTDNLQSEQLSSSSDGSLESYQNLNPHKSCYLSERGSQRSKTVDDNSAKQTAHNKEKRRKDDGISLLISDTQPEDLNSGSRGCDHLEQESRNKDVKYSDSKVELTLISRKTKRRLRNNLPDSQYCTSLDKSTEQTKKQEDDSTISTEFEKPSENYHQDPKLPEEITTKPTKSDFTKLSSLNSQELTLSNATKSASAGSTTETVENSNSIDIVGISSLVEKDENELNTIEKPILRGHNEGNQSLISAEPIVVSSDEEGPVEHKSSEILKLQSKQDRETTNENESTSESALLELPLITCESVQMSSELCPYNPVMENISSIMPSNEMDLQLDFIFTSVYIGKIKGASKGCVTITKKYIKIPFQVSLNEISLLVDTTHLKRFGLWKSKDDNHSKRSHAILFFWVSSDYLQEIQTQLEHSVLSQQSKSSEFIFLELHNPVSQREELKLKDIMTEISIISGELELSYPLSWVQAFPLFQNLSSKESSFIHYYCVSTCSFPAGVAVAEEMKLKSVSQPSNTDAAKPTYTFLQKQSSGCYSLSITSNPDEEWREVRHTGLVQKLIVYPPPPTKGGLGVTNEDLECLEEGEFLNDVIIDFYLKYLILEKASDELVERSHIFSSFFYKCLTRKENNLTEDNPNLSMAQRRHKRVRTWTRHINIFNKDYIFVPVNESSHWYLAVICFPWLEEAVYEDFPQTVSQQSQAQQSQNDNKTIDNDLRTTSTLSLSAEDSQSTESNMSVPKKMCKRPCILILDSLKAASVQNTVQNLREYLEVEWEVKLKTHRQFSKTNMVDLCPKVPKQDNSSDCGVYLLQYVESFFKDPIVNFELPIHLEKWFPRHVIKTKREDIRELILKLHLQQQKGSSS

Estrogen receptor beta [13] = target: T8, Estrogen receptor beta

Peroxisome proliferator-activated receptor gamma/Nuclear receptor coactivator 2, sequence (P37231 whole entry): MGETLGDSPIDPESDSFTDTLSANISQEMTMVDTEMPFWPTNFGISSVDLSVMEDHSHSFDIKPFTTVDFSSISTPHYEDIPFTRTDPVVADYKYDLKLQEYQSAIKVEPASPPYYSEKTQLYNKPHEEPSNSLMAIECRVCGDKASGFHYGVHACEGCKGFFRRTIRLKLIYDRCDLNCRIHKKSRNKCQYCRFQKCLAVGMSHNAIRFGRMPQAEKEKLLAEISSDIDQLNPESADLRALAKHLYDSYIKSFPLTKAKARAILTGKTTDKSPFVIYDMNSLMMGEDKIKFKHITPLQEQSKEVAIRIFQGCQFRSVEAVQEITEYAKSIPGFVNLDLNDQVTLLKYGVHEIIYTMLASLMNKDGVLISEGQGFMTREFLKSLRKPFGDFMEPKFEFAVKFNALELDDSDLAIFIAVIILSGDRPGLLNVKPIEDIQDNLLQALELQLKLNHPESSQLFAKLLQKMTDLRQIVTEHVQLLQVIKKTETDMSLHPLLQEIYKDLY
Peroxisome proliferator-activated receptor gamma/Nuclear receptor coactivator 2, sequence (Q15596 whole entry, further chain): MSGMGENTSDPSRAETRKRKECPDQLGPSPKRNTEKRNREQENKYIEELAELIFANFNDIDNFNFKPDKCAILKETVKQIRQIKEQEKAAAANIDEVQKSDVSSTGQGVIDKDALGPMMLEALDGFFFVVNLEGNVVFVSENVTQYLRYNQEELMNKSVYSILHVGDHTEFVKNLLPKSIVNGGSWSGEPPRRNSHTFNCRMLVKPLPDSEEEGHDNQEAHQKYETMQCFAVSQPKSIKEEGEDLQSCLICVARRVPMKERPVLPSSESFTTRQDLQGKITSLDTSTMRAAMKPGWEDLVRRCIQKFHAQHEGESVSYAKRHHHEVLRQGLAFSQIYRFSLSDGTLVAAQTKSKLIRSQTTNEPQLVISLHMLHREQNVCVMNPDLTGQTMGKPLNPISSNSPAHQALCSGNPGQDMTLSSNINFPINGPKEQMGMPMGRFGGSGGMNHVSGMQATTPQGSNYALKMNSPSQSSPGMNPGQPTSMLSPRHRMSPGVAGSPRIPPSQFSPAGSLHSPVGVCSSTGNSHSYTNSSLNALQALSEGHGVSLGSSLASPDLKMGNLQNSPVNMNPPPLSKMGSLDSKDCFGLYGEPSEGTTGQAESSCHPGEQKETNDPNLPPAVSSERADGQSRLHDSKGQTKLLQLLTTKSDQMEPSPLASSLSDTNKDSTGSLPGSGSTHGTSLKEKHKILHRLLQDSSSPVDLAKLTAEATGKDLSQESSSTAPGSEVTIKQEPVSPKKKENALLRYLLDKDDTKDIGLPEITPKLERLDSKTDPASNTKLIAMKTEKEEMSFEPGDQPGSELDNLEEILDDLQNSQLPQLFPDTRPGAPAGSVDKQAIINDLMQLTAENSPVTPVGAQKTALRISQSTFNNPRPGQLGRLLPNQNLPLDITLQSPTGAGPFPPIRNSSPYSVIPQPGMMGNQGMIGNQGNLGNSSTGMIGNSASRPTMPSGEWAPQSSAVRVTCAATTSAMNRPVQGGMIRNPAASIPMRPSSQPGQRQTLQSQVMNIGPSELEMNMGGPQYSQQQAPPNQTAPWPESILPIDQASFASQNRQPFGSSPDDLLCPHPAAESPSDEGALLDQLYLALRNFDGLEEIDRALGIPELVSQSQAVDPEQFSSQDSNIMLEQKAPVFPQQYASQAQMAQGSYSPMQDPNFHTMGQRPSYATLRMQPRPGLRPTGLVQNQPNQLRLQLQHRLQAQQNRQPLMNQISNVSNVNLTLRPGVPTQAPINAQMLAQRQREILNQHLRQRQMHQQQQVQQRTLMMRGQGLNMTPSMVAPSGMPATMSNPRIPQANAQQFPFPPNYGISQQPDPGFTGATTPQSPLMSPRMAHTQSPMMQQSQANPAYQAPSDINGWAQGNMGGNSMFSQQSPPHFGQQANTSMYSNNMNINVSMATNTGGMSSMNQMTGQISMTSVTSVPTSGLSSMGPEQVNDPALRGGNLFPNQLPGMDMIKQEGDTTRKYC
Peroxisome proliferator-activated receptor gamma/Nuclear receptor coactivator 1, sequence (P37231 whole entry): as the sequence (P37231 whole entry) above
Peroxisome proliferator-activated receptor gamma/Nuclear receptor coactivator 1, sequence (Q15788 whole entry, further chain): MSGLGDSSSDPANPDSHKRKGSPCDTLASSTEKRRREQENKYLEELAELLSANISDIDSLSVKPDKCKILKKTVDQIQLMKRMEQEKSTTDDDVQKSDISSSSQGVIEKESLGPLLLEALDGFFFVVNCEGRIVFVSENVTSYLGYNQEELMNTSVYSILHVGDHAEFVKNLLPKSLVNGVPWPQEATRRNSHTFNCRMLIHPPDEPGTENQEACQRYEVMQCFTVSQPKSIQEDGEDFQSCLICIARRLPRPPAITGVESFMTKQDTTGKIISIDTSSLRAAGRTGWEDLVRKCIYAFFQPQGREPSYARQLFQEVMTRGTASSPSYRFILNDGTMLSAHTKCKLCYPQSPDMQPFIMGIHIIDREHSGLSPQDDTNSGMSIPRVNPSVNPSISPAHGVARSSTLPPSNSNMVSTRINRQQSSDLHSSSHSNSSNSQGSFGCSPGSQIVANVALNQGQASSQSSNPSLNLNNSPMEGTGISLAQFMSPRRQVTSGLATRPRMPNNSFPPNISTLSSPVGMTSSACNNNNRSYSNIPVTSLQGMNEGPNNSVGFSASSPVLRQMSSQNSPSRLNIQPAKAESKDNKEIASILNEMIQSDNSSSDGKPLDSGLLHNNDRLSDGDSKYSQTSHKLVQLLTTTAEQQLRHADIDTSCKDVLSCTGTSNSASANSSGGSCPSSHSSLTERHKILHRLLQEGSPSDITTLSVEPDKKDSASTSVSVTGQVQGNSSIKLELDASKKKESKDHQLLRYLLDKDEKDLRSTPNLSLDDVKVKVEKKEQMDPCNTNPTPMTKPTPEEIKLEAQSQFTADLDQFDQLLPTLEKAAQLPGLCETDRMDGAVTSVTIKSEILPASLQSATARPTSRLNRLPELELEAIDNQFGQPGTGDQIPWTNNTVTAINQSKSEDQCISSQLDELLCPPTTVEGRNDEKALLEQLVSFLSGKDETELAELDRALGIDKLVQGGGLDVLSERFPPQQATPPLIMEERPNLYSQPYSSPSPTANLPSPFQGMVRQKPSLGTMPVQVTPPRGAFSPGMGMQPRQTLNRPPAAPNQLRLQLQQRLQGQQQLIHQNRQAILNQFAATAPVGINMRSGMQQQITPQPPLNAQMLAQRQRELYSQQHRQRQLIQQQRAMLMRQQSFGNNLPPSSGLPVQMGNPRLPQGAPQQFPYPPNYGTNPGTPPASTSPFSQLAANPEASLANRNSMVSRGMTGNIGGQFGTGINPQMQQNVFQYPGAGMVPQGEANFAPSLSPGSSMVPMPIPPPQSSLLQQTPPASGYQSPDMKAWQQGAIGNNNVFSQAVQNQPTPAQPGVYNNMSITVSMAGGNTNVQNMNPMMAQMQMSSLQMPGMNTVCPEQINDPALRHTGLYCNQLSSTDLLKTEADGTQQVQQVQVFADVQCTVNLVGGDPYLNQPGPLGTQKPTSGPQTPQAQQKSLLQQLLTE
T1 sequence (P11940 whole entry): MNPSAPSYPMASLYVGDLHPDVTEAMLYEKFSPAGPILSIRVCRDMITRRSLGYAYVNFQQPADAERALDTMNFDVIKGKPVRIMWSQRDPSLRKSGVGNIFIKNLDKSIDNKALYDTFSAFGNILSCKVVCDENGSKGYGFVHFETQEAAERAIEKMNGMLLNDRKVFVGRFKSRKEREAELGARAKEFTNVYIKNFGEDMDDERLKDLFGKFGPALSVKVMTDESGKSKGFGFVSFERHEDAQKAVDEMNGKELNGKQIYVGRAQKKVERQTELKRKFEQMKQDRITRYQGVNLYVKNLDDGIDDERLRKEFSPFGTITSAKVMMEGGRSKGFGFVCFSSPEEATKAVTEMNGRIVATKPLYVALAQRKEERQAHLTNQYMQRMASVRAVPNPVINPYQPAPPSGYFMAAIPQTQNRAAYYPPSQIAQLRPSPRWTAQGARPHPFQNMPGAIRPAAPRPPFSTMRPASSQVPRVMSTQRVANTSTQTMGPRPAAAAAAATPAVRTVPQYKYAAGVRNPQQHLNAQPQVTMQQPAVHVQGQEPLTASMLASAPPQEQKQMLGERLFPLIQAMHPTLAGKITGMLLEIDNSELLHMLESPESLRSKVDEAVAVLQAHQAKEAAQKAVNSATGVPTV
T8 sequence (Q92731 whole entry): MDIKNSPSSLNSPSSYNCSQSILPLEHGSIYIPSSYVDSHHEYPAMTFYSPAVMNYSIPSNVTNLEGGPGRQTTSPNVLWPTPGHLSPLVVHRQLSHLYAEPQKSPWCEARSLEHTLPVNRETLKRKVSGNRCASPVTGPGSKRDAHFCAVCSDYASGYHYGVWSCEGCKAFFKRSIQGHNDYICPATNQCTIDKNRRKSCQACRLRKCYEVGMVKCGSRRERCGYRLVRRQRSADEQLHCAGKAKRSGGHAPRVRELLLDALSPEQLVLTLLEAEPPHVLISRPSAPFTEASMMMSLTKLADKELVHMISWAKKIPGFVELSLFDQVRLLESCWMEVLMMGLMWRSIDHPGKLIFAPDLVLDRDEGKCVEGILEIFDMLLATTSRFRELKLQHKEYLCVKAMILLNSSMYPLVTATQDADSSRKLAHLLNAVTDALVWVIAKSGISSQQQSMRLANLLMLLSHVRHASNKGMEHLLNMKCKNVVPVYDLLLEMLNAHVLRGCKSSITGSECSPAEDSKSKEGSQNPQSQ

## CC1CC1C(=O)Nc1nc(-c2cccs2)c(-c2cccs2)s1 (stereo unspecified)
[1]
  CC50: > 40 µM (active)

## COc1cc2c(cc1OC)C(Nc1ccc(S(N)(=O)=O)cc1)=NC(C)(C)C2
[2]
  EC50: > 79.4 µM (not active)
[3]
  EC50: > 79.4 µM (not active)
[4]
  EC50: > 79.4 µM (not active)

## O=S(=O)(Nc1cccc(C(F)(F)F)c1)c1cnc[nH]1
[2]
  EC50: > 79.4 µM (not active)
[3]
  EC50: > 79.4 µM (not active)
[4]
  EC50: > 79.4 µM (not active)

## COc1cc(-c2nc(S(=O)(=O)c3ccc(C)cc3)c(N3CCOCC3)o2)cc(OC)c1OC
[5]
  IC50: > 66 µM (inactive)
[1]
  CC50: > 40 µM (active)
[6]
  IC50: > 66 µM (inactive)

## O=C(O)CC1SC(N/N=C/c2ccc(-c3ccc(Cl)cc3[N+](=O)[O-])o2)=NC1=O (stereo unspecified)
Protein RecA
  EC50: 4.61 µM (active)
Genome polyprotein
  IC50: 34.8 µM (active)
[7]
  IC50: > 50 µM (not active)
[8]
  AC50: > 380 µM (inactive)

## Cc1cc(C(=O)Nc2sc3c(c2C#N)CCC3)no1
[9]
  IC50: > 99 µM (inactive)
[10]
  IC50: > 99 µM (inactive)
Caspase-3
  IC50: 30.4 µM (active)
Estrogen receptor beta [11]
  IC50: < 0.023 µM (not active)
[12]
  IC50: 52.7 µM (active)
Estrogen receptor beta [13]
  IC50: 11.5 µM (active)

## Cc1ccc(-n2nnnc2Sc2nc([N+](=O)[O-])nn2C)cc1
[1]
  CC50: 16.5 µM (active)

Source: ChEMBL document CHEMBL1201862, “PubChem BioAssay data set” (2004)
